# Values quoted from earlier work as cited in US8808764B2, “Methods and compositions for increasing growth hormones” (Quality IP Holdings, Inc., priority 2012, dated 2014).
# Legend:
# GH = settings: subcutaneous injection of 0.06 IU in GH deficient subjects
molecule,measurement,setting,value
N=C(N)NCCC[C@H](N)C(=O)O [arginine],elevation of serum hGH levels,"hGH; 30 g, intravenous, in males",8.6 fold
same,increase in hGH levels,hGH; intravenous infusion of 183 mg/kg body weight in females,≥ 20 fold
HGH: human growth hormone given by subcutaneous injection to GH deficient subjects,mean level of GH reached,GH,0.4 ng/mL
